Measured values from PMC3131604, “The Inhibitory Effect of Non-Steroidal Anti-Inflammatory Drugs (NSAIDs) on the Monophenolase and Diphenolase Activities of Mushroom Tyrosinase” (International Journal of Molecular Sciences, 2011).
Where two headings read alike, the source gives them in different places.

Experiments:
mushroom tyrosinase [1] = biological target: T1, mushroom tyrosinase (Agaricus bisporus, UniProt C7FF04); assay: diphenolase activity assay of mushroom tyrosinase (L-DOPA as substrate); type: biochemical; details: for KIS, diphenolase: Lineweaver-Burk / secondary plots; for Inhibition type, diphenolase activity: Lineweaver-Burk plots; for activity at 50 µM: at 0.05 mM; for activity at 50 µM / activity at 100 µM / activity at 200 µM / activity at 500 µM / activity at 1000 µM: read-out: diphenolase activity in presence of inhibitor; for activity at 100 µM: at 0.1 mM; for activity at 500 µM: at 0.5 mM; for activity at 1000 µM: at 1.0 mM
Method: The diphenolase activity assay was performed as previously described. First, 300 μL of 2.5 mM 3,4-dihydroxyphenylalanine (L-DOPA) solution, 50 μL of DMSO with or without a sample chemical, and 1.1 mL of 0.1 M phosphate buffer (pH 6.8) were mixed. The mixture was preincubated at 25 °C for 10 min before 50 μL of 1000 units/mL mushroom tyrosinase in aqueous solution was added, and the reaction was monitored at 475 nm. A control reaction was conducted in DMSO alone. The percentage of activity of tyrosinase was calculated as follows: 100 − [(A − B)/A × 100], where A represents the difference in the absorbance of the control sample between an incubation time of 0.5 and 1.0 min, and B represents the difference in the absorbance of the test sample over the same incubation period.
(§1) The inhibition type of NSAIDs on the monophenolase and diphenolase activity was determined by the Lineweaver-Burk plots and the inhibition constants were determined from secondary plots of the apparent Km/Vmax versus the concentration of the inhibitor.

B16F1 melanoma cells = details: cited from earlier work
mushroom tyrosinase [2] = biological target: T1, mushroom tyrosinase; assay: monophenolase activity assay of mushroom tyrosinase (L-tyrosine as substrate); type: biochemical; details: for effect on lag time of monophenolase activity: 0.25-1.0 mM inhibitor; for Inhibition type, monophenolase activity: Lineweaver-Burk plots; for activity at 250 µM: at 0.25 mM; for activity at 250 µM / activity at 500 µM / activity at 750 µM / activity at 1000 µM: read-out: monophenolase activity (steady-state rate) in presence of inhibitor; for activity at 500 µM: at 0.5 mM; for activity at 750 µM: at 0.75 mM; for activity at 1000 µM: at 1.0 mM; for KIS (inhibitor binding with the enzyme-substrate complex), monophenolase: secondary plot of Lineweaver-Burk slopes
Method: The monophenolase activity assay was performed with modification as reported by Chen et al.. In this assay, L-tyrosine was used as substrate in the monophenolase activity assay. First, 300 μL of 2.5 mM L-tyrosine, 25 μL of DMSO with or without a sample chemical, and 300 μL of 0.1 M phosphate buffer (pH 6.8) were mixed. The mixture was preincubated at 37 °C for 10 min before 125 μL of 1000 units/mL mushroom tyrosinase in aqueous solution added, and the reaction was performed at 37 °C. Enzyme activity was monitored at 475 nm by a UV spectrophotometer (Shimadzu, UV-1700). The lag time was determined by extrapolation of the linear portion of the dopachrome accumulation curve to the abscissa axis.
as §1

T1 sequence (C7FF04 1-392): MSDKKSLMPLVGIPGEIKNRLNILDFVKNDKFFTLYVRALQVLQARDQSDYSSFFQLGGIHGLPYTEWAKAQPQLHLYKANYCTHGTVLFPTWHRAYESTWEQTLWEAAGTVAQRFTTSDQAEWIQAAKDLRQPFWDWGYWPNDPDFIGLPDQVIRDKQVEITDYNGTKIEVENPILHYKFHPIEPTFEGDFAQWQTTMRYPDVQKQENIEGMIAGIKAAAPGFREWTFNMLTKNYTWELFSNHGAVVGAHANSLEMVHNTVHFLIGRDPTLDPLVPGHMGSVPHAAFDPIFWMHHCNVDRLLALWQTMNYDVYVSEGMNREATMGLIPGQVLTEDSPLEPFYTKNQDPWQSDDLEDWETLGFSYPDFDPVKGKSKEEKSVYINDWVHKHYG
T1 sequence (G1K3P4 1-150 partner): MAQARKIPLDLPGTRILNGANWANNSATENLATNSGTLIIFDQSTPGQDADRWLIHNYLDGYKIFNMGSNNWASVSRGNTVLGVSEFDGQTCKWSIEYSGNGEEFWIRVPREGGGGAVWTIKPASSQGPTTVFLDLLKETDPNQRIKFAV

For CC(=O)Oc1ccccc1C(=O)O [Acetylsalicylic acid, acetylsalicylic acid], the “inhibition of diphenolase activity (in words)” value (shortened to “inhibition … (in words)”) (mushroom tyrosinase [1]; L-DOPA substrate) is given as “did not inhibit”, the inhibition at 4000 µM (mushroom tyrosinase [1]; at 4 mM) is given as -6% and the effect on melanogenesis (B16F1 melanoma cells; B16F1 melanoma cells ref 23) is given as “inhibits melanogenesis”. For the same compound, the “effect on tyrosinase protein expression” value (B16F1 melanoma cells; B16F1 melanoma cells ref 23) was “down-regulates”.
For O=C(O)Cc1ccccc1Nc1c(Cl)cccc1Cl [Diclofenac, diclofenac], the effect on melanogenesis (B16F1 melanoma cells) is given as “inhibit melanogenesis” and the inhibition at 4000 µM (mushroom tyrosinase [2]; at 4 mM) is given as 25%.
For O=C(O)c1cc(-c2ccc(F)cc2F)ccc1O [Diflunisal, diflunisal], the “KIS, diphenolase” value (mushroom tyrosinase [1]) was 0.19 mM, the “Inhibition type, diphenolase activity” value (mushroom tyrosinase [1]) was “Non-competitive” and the activity at 50 µM (mushroom tyrosinase [1]) was ~77%. It also gave an activity at 100 µM (mushroom tyrosinase [1]) of ~63%, an activity at 200 µM (mushroom tyrosinase [1]; at 0.2 mM) of ~49% and an activity at 500 µM (mushroom tyrosinase [1]) of ~32%. The activity at 1000 µM (mushroom tyrosinase [1]) was ~20%, the “effect on lag time of monophenolase activity” value (mushroom tyrosinase [2]) was “extended” and the “Inhibition type, monophenolase activity” value (mushroom tyrosinase [2]) was “Non-competitive”. For the same compound, the activity at 250 µM (mushroom tyrosinase [2]) was ~45%, the activity at 500 µM (mushroom tyrosinase [2]) was ~34% and the activity at 750 µM (mushroom tyrosinase [2]) was ~27%. For the same compound, the activity at 1000 µM (mushroom tyrosinase [2]) was ~20% and the “KIS (inhibitor binding with the enzyme-substrate complex), monophenolase” value (mushroom tyrosinase [2]) was 0.11 mM.
In the case of CC(C)Cc1ccc(C(C)C(=O)O)cc1 (stereo not shown) [Ibuprofen, ibuprofen], the “inhibition … (in words)” value (mushroom tyrosinase [1]; L-DOPA substrate) is reported as “did not inhibit” and the inhibition at 1000 µM (mushroom tyrosinase [1]; at 1 mM) is reported as 8%.
For COc1ccc2c(c1)c(CC(=O)O)c(C)n2C(=O)c1ccc(Cl)cc1 [Indomethacin, indomethacin], the “KIS, diphenolase” value (mushroom tyrosinase [1]) was 2.42 mM, the “Inhibition type, diphenolase activity” value (mushroom tyrosinase [1]) was “Non-competitive” and the activity at 50 µM (mushroom tyrosinase [1]) was ~89%. It also gave an activity at 100 µM (mushroom tyrosinase [1]) of ~82%, an activity at 200 µM (mushroom tyrosinase [1]; at 0.2 mM) of ~70% and an activity at 500 µM (mushroom tyrosinase [1]) of ~50%. The activity at 1000 µM (mushroom tyrosinase [1]) was ~32%, the “effect on lag time of monophenolase activity” value (mushroom tyrosinase [2]) was “did not change” and the “Inhibition type, monophenolase activity” value (mushroom tyrosinase [2]) was “Non-competitive”. It also gave an activity at 250 µM (mushroom tyrosinase [2]) of ~84%, an activity at 500 µM (mushroom tyrosinase [2]) of ~72% and an activity at 750 µM (mushroom tyrosinase [2]) of ~66%. For the same compound, the activity at 1000 µM (mushroom tyrosinase [2]) was ~60%, the “IC50 of monophenolase activity relative to diphenolase activity” value (mushroom tyrosinase [2]; ratio of IC50 values) was “about three times larger” and the “KIS (inhibitor binding with the enzyme-substrate complex), monophenolase” value (mushroom tyrosinase [2]) was 0.75 mM.
For Cc1cccc(Nc2ccccc2C(=O)O)c1C [Mefenamic acid, mefenamic acid], the “inhibition … (in words)” value (mushroom tyrosinase [1]; at 0.2 mM) is given as “slightly inhibited”, the effect on melanogenesis (B16F1 melanoma cells) is given as “inhibit melanogenesis” and the inhibition at 1000 µM (mushroom tyrosinase [2]; at 1 mM) is given as 9%.
